# Where two headings read alike, the source gives them in different places.
# Columns and labels:
# [1] = In vivo toxicological study in rats: haematology; design: species or system rats of the Wistar strain
# Procedure: Forty-two male and forty-two female rats of the Wistar strain were allocated to the study. Three groups of three males and three females were given doses of 30, 100 and 300 mg/kg of target compounds (Table 8). The vehicle was 1.5 w/w % HPMC, 1.5 w/w % PS80 in 10 mM PBS, pH 7 and dose volume were 5 mL/kg. The animals were acclimatised at least 14 day prior to the study and exposed to a 12 hours light, 12 hours dark light cycle. The formulations were administered via oral gavage. Administration occurred once daily in the morning for seven consecutive days. Blood for scheduled haematology and plasma chemistry were taken at necropsy. For plasma chemistry, 0.6 ml blood (lithium heparin) per animal and for haematology, 0.5 ml blood (K2EDTA) per animal. The blood and plasma were analysed using Exigo analyzer and Vetscan equipment. Blood was analysed within 60 min of sampling. On the morning of analysis, the Exigo analyzer was checked against a reference sample provided by the manufacturer, and a control sample analysis cycle was performed (Table 9).
# [2] = system: HepG2 cells; assay: Triglyceride (TAG) measurement assay, one week steatosis model; type: cell-based, human; settings: for activity at 10 µM: Homo sapiens
# Method in brief: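 HepG2 cells steatosis-induced for one week in high-glucose DMEM/10% FBS with 10 μg/ml insulin and 10 μM T0901317, media changed at days 0, 3 and 5, with 10 μM test compound throughout. Triglyceride measured colorimetrically (OD 570 nm); viability by MTT.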
# [3] = female, 30 mg/kg oral daily 7 d
# [4] = female, 100 mg/kg oral daily 7 d
# [5] = female, 300 mg/kg oral daily 7 d
# [6] = 168 h, HepG2, 10 μM, one week steatosis induce media, Control 100.00, read-out: TAG (%)
compound,measurement,setting,value
COc1ccccc1NC(=O)N1CCc2c(sc(NC(=O)c3cccc4ccccc34)c2C#N)C1 [PKL-A152],GRAN,[1]; [3],1.00 10^9/l
same,HCT,[1]; [3],41.5%
same,HGB,[1]; [3],14.1 g/dL
same,LYM,[1]; [3],5.6 10^9/l
same,MCH,[1]; [3],19.5 pg
same,MCHC,[1]; [3],34.1 g/dL
same,MCV,[1]; [3],57.2 fL
same,MONO,[1]; [3],0.17 10^9/l
same,PLT,[1]; [3],1089 10^9/l
same,RBC,[1]; [3],7.24 10^12/l
same,RDW %,[1]; [3],13.9%
same,WBC,[1]; [3],6.8 10^9/l
same,GRAN,[1]; [4],1.20 10^9/l
same,HCT,[1]; [4],42.0%
same,HGB,[1]; [4],14.3 g/dL
same,LYM,[1]; [4],5.7 10^9/l
same,MCH,[1]; [4],19.5 pg
same,MCHC,[1]; [4],34 g/dL
same,MCV,[1]; [4],57.4 fL
same,MONO,[1]; [4],0.17 10^9/l
same,PLT,[1]; [4],1122 10^9/l
same,RBC,[1]; [4],7.32 10^12/l
same,RDW %,[1]; [4],14.0%
same,WBC,[1]; [4],7.1 10^9/l
same,GRAN,[1]; [5],1.03 10^9/l
same,HCT,[1]; [5],42.9%
same,HGB,[1]; [5],14.7 g/dL
same,LYM,[1]; [5],4.8 10^9/l
same,MCH,[1]; [5],19.7 pg
same,MCHC,[1]; [5],34.1 g/dL
same,MCV,[1]; [5],57.7 fL
same,MONO,[1]; [5],0.23 10^9/l
same,PLT,[1]; [5],1062 10^9/l
same,RBC,[1]; [5],7.43 10^12/l
same,RDW %,[1]; [5],14.1%
same,WBC,[1]; [5],6.0 10^9/l
same,GRAN,"[1]; male, 30 mg/kg oral daily 7 d",1.50 10^9/l
same,HCT,"[1]; male, 30 mg/kg oral daily 7 d",46.3%
same,HGB,"[1]; male, 30 mg/kg oral daily 7 d",15.6 g/dL
same,LYM,"[1]; male, 30 mg/kg oral daily 7 d",5.9 10^9/l
same,MCH,"[1]; male, 30 mg/kg oral daily 7 d",19.6 pg
same,MCHC,"[1]; male, 30 mg/kg oral daily 7 d",33.8 g/dL
same,MCV,"[1]; male, 30 mg/kg oral daily 7 d",58.0 fL
same,MONO,"[1]; male, 30 mg/kg oral daily 7 d",0.23 10^9/l
same,PLT,"[1]; male, 30 mg/kg oral daily 7 d",922 10^9/l
same,RBC,"[1]; male, 30 mg/kg oral daily 7 d",7.97 10^12/l
same,RDW %,"[1]; male, 30 mg/kg oral daily 7 d",14.2%
same,WBC,"[1]; male, 30 mg/kg oral daily 7 d",7.7 10^9/l
same,GRAN,"[1]; male, 100 mg/kg oral daily 7 d",1.47 10^9/l
same,HCT,"[1]; male, 100 mg/kg oral daily 7 d",44.7%
same,HGB,"[1]; male, 100 mg/kg oral daily 7 d",15.1 g/dL
same,LYM,"[1]; male, 100 mg/kg oral daily 7 d",6.9 10^9/l
same,MCH,"[1]; male, 100 mg/kg oral daily 7 d",19.8 pg
same,MCHC,"[1]; male, 100 mg/kg oral daily 7 d",33.8 g/dL
same,MCV,"[1]; male, 100 mg/kg oral daily 7 d",58.8 fL
same,MONO,"[1]; male, 100 mg/kg oral daily 7 d",0.17 10^9/l
same,PLT,"[1]; male, 100 mg/kg oral daily 7 d",990 10^9/l
same,RBC,"[1]; male, 100 mg/kg oral daily 7 d",7.63 10^12/l
same,RDW %,"[1]; male, 100 mg/kg oral daily 7 d",14.6%
same,WBC,"[1]; male, 100 mg/kg oral daily 7 d",8.5 10^9/l
same,GRAN,"[1]; male, 300 mg/kg oral daily 7 d",1.17 10^9/l
same,HCT,"[1]; male, 300 mg/kg oral daily 7 d",45.6%
same,HGB,"[1]; male, 300 mg/kg oral daily 7 d",15.4 g/dL
same,LYM,"[1]; male, 300 mg/kg oral daily 7 d",5.8 10^9/l
same,MCH,"[1]; male, 300 mg/kg oral daily 7 d",19.7 pg
same,MCHC,"[1]; male, 300 mg/kg oral daily 7 d",33.8 g/dL
same,MCV,"[1]; male, 300 mg/kg oral daily 7 d",58.4 fL
same,MONO,"[1]; male, 300 mg/kg oral daily 7 d",0.17 10^9/l
same,PLT,"[1]; male, 300 mg/kg oral daily 7 d",1046 10^9/l
same,RBC,"[1]; male, 300 mg/kg oral daily 7 d",7.80 10^12/l
same,RDW %,"[1]; male, 300 mg/kg oral daily 7 d",14.4%
same,WBC,"[1]; male, 300 mg/kg oral daily 7 d",7.2 10^9/l
same,ratio between TAG content and cell viability,[2],low ratio between TAG content and cell viability
same,activity at 10 µM,[2]; [6],10.8%
same,activity at 10 µM,"[2]; HepG2, 168 h, ratio between TAG content and cell viability, Control 100.0, read-out: TAG/cell viability",24.5%
same,TAG/cell viability,[2]; ratio as printed in text with %,24.5%
N#Cc1c(NC(=O)c2cccc3ccccc23)sc2c1CCN(C(=O)Nc1ccccc1OC(F)(F)F)C2 [PKL-A159],GRAN,[1]; [3],0.80 10^9/l
same,HCT,[1]; [3],40.3%
same,HGB,[1]; [3],14.4 g/dL
same,LYM,[1]; [3],4.9 10^9/l
same,MCH,[1]; [3],19.4 pg
same,MCHC,[1]; [3],35.7 g/dL
same,MCV,[1]; [3],54.5 fL
same,MONO,[1]; [3],0.13 10^9/l
same,PLT,[1]; [3],1028 10^9/l
same,RBC,[1]; [3],7.39 10^12/l
same,RDW %,[1]; [3],14.1%
same,WBC,[1]; [3],5.9 10^9/l
same,GRAN,[1]; [4],0.77 10^9/l
same,HCT,[1]; [4],41.2%
same,HGB,[1]; [4],14.5 g/dL
same,LYM,[1]; [4],5.8 10^9/l
same,MCH,[1]; [4],18.9 pg
same,MCHC,[1]; [4],35.2 g/dL
same,MCV,[1]; [4],53.8 fL
same,MONO,[1]; [4],0.10 10^9/l
same,PLT,[1]; [4],994 10^9/l
same,RBC,[1]; [4],7.66 10^12/l
same,RDW %,[1]; [4],14.6%
same,WBC,[1]; [4],6.7 10^9/l
same,GRAN,[1]; [5],0.93 10^9/l
same,HCT,[1]; [5],41.1%
same,HGB,[1]; [5],14.5 g/dL
same,LYM,[1]; [5],5.3 10^9/l
same,MCH,[1]; [5],19.4 pg
same,MCHC,[1]; [5],35.2 g/dL
same,MCV,[1]; [5],55.2 fL
same,MONO,[1]; [5],0.17 10^9/l
same,PLT,[1]; [5],808 10^9/l
same,RBC,[1]; [5],7.45 10^12/l
same,RDW %,[1]; [5],14.4%
same,WBC,[1]; [5],6.4 10^9/l
same,GRAN,"[1]; male, 30 mg/kg oral daily 7 d",1.03 10^9/l
same,HCT,"[1]; male, 30 mg/kg oral daily 7 d",40.9%
same,HGB,"[1]; male, 30 mg/kg oral daily 7 d",14.5 g/dL
same,LYM,"[1]; male, 30 mg/kg oral daily 7 d",2.8 10^9/l
same,MCH,"[1]; male, 30 mg/kg oral daily 7 d",19.9 pg
same,MCHC,"[1]; male, 30 mg/kg oral daily 7 d",35.4 g/dL
same,MCV,"[1]; male, 30 mg/kg oral daily 7 d",56.3 fL
same,MONO,"[1]; male, 30 mg/kg oral daily 7 d",0.10 10^9/l
same,PLT,"[1]; male, 30 mg/kg oral daily 7 d",1117 10^9/l
same,RBC,"[1]; male, 30 mg/kg oral daily 7 d",7.26 10^12/l
same,RDW %,"[1]; male, 30 mg/kg oral daily 7 d",15.1%
same,WBC,"[1]; male, 30 mg/kg oral daily 7 d",3.9 10^9/l
same,GRAN,"[1]; male, 100 mg/kg oral daily 7 d",1.43 10^9/l
same,HCT,"[1]; male, 100 mg/kg oral daily 7 d",42.4%
same,HGB,"[1]; male, 100 mg/kg oral daily 7 d",14.9 g/dL
same,LYM,"[1]; male, 100 mg/kg oral daily 7 d",7.1 10^9/l
same,MCH,"[1]; male, 100 mg/kg oral daily 7 d",19.9 pg
same,MCHC,"[1]; male, 100 mg/kg oral daily 7 d",35.3 g/dL
same,MCV,"[1]; male, 100 mg/kg oral daily 7 d",56.4 fL
same,MONO,"[1]; male, 100 mg/kg oral daily 7 d",0.23 10^9/l
same,PLT,"[1]; male, 100 mg/kg oral daily 7 d",974 10^9/l
same,RBC,"[1]; male, 100 mg/kg oral daily 7 d",7.51 10^12/l
same,RDW %,"[1]; male, 100 mg/kg oral daily 7 d",15.4%
same,WBC,"[1]; male, 100 mg/kg oral daily 7 d",8.7 10^9/l
same,GRAN,"[1]; male, 300 mg/kg oral daily 7 d",1.00 10^9/l
same,HCT,"[1]; male, 300 mg/kg oral daily 7 d",42.4%
same,HGB,"[1]; male, 300 mg/kg oral daily 7 d",14.8 g/dL
same,LYM,"[1]; male, 300 mg/kg oral daily 7 d",4.6 10^9/l
same,MCH,"[1]; male, 300 mg/kg oral daily 7 d",19.6 pg
same,MCHC,"[1]; male, 300 mg/kg oral daily 7 d",35.1 g/dL
same,MCV,"[1]; male, 300 mg/kg oral daily 7 d",55.8 fL
same,MONO,"[1]; male, 300 mg/kg oral daily 7 d",0.10 10^9/l
same,PLT,"[1]; male, 300 mg/kg oral daily 7 d",1200 10^9/l
same,RBC,"[1]; male, 300 mg/kg oral daily 7 d",7.59 10^12/l
same,RDW %,"[1]; male, 300 mg/kg oral daily 7 d",15.3%
same,WBC,"[1]; male, 300 mg/kg oral daily 7 d",5.7 10^9/l
same,activity at 10 µM,[2]; [6],4.54%

# Reference: patent publication US20260234159A1, “SMALL MOLECULE TREATMENT OF FATTY LIVER DISEASE AND HCC” (SCANDIEDGE THERAPEUTICS AB, priority 2023, published 2026)
